Patent US7550624B2, “Pharmaceutically active salts and esters of 1-dimethylamino-3-(3-methoxyphenyl)-2-methylpentan-3-ol and 3- (3-dimethylamino-1-ethyl-1-hydroxy-2-methylpropyl)-phenol and methods of using same” (Gruenenthal GmbH, priority 2002, dated 2009)
Marks after values point to notes of the source that are not given here.

Test system: female Sprague-Dawley rats
Assay: Cystometry tests on conscious fresh rats
Format: in vivo, rat
Conditions: for effect on the bladder regulation (in words): iv, cystometric parameters
Method: Cystometry investigations were carried out on fresh female Sprague-Dawley rats according to the method of Ishizuka et. al. ((1997), Naunyn-Schmiedeberg's Arch. Pharmacol. 355: 787-793). Three days after implantation of bladder and venous catheters the animals were investigated in the conscious state while freely moving. The bladder catheter was connected to a pressure gauge and an injection pump. The animals were placed in metabolic cages that enable the volume of urine to be measured. Physiological saline solution was infused (10 ml/hour) into the emptied bladder and the bladder pressure and volume of urine were continuously recorded. After a stabilisation phase a 20-minute phase was recorded that was characterised by normal, reproducible micturition cycles. The following parameters among others were measured: • threshold pressure TP, bladder pressure immediately before micturition, • bladder capacity BC, residual volume after prior micturition plus volume of infused solution during the filling phase, • intercontraction interval ICI, i.e. the time interval between consecutive micturition.
An increase in the threshold pressure (TP) indicates an important therapeutic effect in one of the medical conditions covered by the invention. Also, the intercontraction interval (ICI) is an important parameter for measuring the physiological effectiveness of a substance in the treatment of urinary incontinence, as is the bladder capacity (BC). In this connection, on account of the widely differing causes of the symptoms of these disease patterns it is not necessary to influence positively all three parameters in order for a medicament to be effective.
After recording three reproducible micturition cycles to provide a baseline value, the test substances 1 (1.0 mg/kg), 2 (0.1; 0.3 and 0.5 mg/kg), 21 (0.5 mg/kg) and 7 (0.3 mg/kg) in a vehicle comprising 0.9% NaCl were applied intravenously and the effect on the cystometric parameters was recorded at 90 to 120 minutes. In the effect maximum the mean value of 3 micturition cycles was determined and recorded as a percentage change compared to the baseline value (Table 1).

[1] = 0.5 mg/kg iv, effect maximum, mean of 3 micturition cycles
[2] = 0.3 mg/kg iv, effect maximum, mean of 3 micturition cycles

| SMILES | BC Bladder Capacity (change compared to the baseline value) [1] | TP Threshold Pressure (change compared to the baseline value) [1] | effect on the bladder regulation (in words) | BC Bladder Capacity (change compared to the baseline value) (0.1 mg/kg iv, effect maximum, mean of 3 micturition cycles) | BC Bladder Capacity (change compared to the baseline value) [2] | ICI Inter-Contraction Interval (change compared to the baseline value) [2] | BC Bladder Capacity (change compared to the baseline value) (1.0 mg/kg iv, effect maximum, mean of 3 micturition cycles) |
| --- | --- | --- | --- | --- | --- | --- | --- |
| CC[C@@](O)(c1cccc(OC)c1)[C@@H](C)CN(C)C.Cl [Compound 21, (−)-(2S,3S)-1-dimethylamino-3-(3-methoxyphenyl)-2-methylpentan-3-ol, hydrochloride] | +3%** | −1.1%** | does not exhibit such a marked effect |  |  |  |  |
| CC[C@](O)(c1cccc(OC)c1)[C@H](C)CN(C)C.Cl [Compound 2, (+)-(2R,3R)-1-dimethylamino-3-(3-methoxyphenyl)-2-methylpentan-3-ol, hydrochloride] | +20.6%** |  | very effective | +7.8%** | +33%** |  |  |
| CCC(O)(c1cccc(O)c1)C(C)CN(C)C.Cl (racemic) [Compound 7, (2RS,3RS)-3-(3-dimethylamino-1-ethyl-1-hydroxy-2-methylpropyl)-phenol, hydrochloride] |  |  |  |  | +32%** | +2%* |  |
| CC[C@](O)(c1cccc(OC)c1)[C@H](C)CN(C)C.Cl (racemic) [Compound 1, (2RS,3RS)-1-dimethylamino-3-(3-methoxyphenyl)-2-methylpentan-3-ol, hydrochloride] |  |  |  |  |  |  | +31%** |
